Here are results for three compounds from patent US9120877B2, “Sulfated polysaccharide compound and the preparation and use thereof” (PARNELL TECHNOLOGIES PTY LTD, priority 2008, dated 2015).

The data set is described as follows: Stability (degradation and discolouration) of injectable aqueous GXS formulation with antioxidants without refrigeration. Format: physicochemical. The note with it: antioxidant in GXS injectable formulation, room temperature. The text has this: In one arrangement, the injectable formulation includes a suitable antioxidant to enable the aqueous formulation to remain substantially stable (that is to resist discolouration and degradation) without refrigeration. Patent WO 2007/123800 claims a PPS formulation with “an antioxidant in the group metabisulfite, sodium bisulfate and ascorbate in a concentration of about 0.02% w/v to about 5.0% w/v” is stable without refrigeration. […] This finding supports a conclusion that GXS is a distinct entity to prior art PPS extracted from xylan.

Regarding `O=S([O-])O.[Na+]` [Sodium bisulfite ACS Reagent, Sodium bisulfite], the “Exemplary effective concentration to achieve substantial stability of GXS injectable formulation” value (“Exemplary effective concentration” for short) is listed as 0.5% by weight/volume.
As for `O=S(=O)([O-])CO.[Na+]` [Sodium hydroxymethane sulfonate], the “Exemplary effective concentration” value is reported as 1% by weight/volume.
Take `O=S([O-])S(=O)(=O)[O-].[Na+].[Na+]` [Sodium metabisulfite]: the “Exemplary effective concentration” value worked out at 0.5% by weight/volume.
